# Source: paper PMC12282101, “Heat shock protein 90 chaperone activity is required for hepatitis A virus replication” (Journal of Virology, 2025)
# Structures can show the parent of a compound that is named as a salt. Where two headings read alike, the source gives them in different places.
# Columns and labels:
# [1] = tested on: 18f-NLuc reporter virus; experiment: microbe, parasite or virus in culture; format: cell-based, Hepatitis A virus; conditions: for activity at 10 µM: Hepatovirus A, Huh-7.5.1, 72 h, read-out: Normalized HAV production
# [2] = tested on: Huh-7.5.1 cells; conditions: 10 µM
# [3] = tested on: HM175/18f virus
# [4] = tested on: Huh-7.5.1 cells; conditions: Huh-7.5 or Huh-7.5.1 cells, RT-qPCR experiments
# [5] = tested on: Huh-7.5.1 cells; experiment: Cell viability in the chemical screen (Cell TiterGlo); conditions: 10 µM compound, 72 h
# [6] = tested on: 18f-NLuc reporter virus; conditions: for IC50: read-out: IC50, HAV replication by NLuc
# [7] = tested on: Huh-7.5 cells
compound,measurement,setting,value
NC(=O)c1ncn([C@@H]2O[C@H](CO)[C@@H](O)[C@H]2O)n1 [Ribavirin],activity at 10 µM,[1],112%
same,Viability Percent DMSO,[2],117 Percent DMSO
Clc1ccc(C(Cn2ccnc2)OCc2ccsc2Cl)c(Cl)c1 (stereo not drawn) [Vagistat],activity at 10 µM,[1],109%
same,Viability Percent DMSO,[2],93 Percent DMSO
Cc1c(-c2cnccn2)ssc1=S [Oltipraz],activity at 10 µM,[1],113%
same,Viability Percent DMSO,[2],90 Percent DMSO
C=C1CC[C@@H]2[C@](C)(COC(=O)CCC(=O)[O-])[C@H](OC(=O)CCC(=O)O)CC[C@@]2(C)[C@@H]1/C=C/C1=CCOC1=O.[K+] [Dehydroandrographolide Succinate Potasium Salt],Normalized HAV production,[1],1.19
same,Viability Percent DMSO,[2],102 Percent DMSO
NCCCNCCCCNCCCN [Spermine],activity at 10 µM,[1],96%
same,Viability Percent DMSO,[2],112 Percent DMSO
COc1cccc(-c2cc(F)ccc2[C@H]2Cc3nc(N)nc(C)c3C(=O)N2)n1 [HSP990],IC50,"[3]; read-out: IC50, HAV replication by RT-qPCR",2.2 nM
same,Blocking of HAV replication (in words),"[3]; targeted screen of heat shock protein inhibitors, RT-qPCR",highly active
same,CC50,[4],56.9 nM
CC(C)(C)Oc1cccc2nc(N)nc(N)c12 [HZ-1157],Normalized HAV production,[1],2.12
same,Viability Percent DMSO,[2],16 Percent DMSO
Vitamin E,Normalized HAV production,[1],1.19
same,Viability Percent DMSO,[2],97 Percent DMSO
NC12CC3CC(CC(C3)C1)C2 [Amantadine hydrochloride],activity at 10 µM,[1],87%
same,Viability Percent DMSO,[2],111 Percent DMSO
CC(C)CN(C[C@@H](O)[C@H](Cc1ccccc1)NC(=O)O[C@H]1CO[C@H]2OCC[C@H]21)S(=O)(=O)c1ccc(N)cc1 [Darunavir],activity at 10 µM,[1],99%
same,Viability Percent DMSO,[2],106 Percent DMSO
S=C(NCCc1ccccn1)Nc1ccc(Br)cn1 [Trovirdine],activity at 10 µM,[1],71%
same,Viability Percent DMSO,[2],165 Percent DMSO
C[C@@H](c1ncncc1F)[C@](O)(Cn1cncn1)c1ccc(F)cc1F [Voriconazole],activity at 10 µM,[1],133%
same,Viability Percent DMSO,[5],123 Percent DMSO
CCOC(=O)CCC(=O)O[C@H]1[C@H](O[C@@H]2[C@@H](C)[C@H](O[C@H]3C[C@@](C)(OC)[C@@H](O)[C@H](C)O3)[C@@H](C)C(=O)O[C@H](CC)[C@@](C)(O)[C@H](O)[C@@H](C)C(=O)[C@H](C)C[C@@]2(C)O)O[C@H](C)C[C@@H]1N(C)C [Erythromycin ethylsuccinate],activity at 10 µM,[1],60%
same,Viability Percent DMSO,[5],107 Percent DMSO
COC(=O)N[C@H](C(=O)N[C@@H](Cc1ccccc1)[C@@H](O)CN(Cc1ccc(-c2ccccn2)cc1)NC(=O)[C@@H](NC(=O)OC)C(C)(C)C)C(C)(C)C [Atazanavir],activity at 10 µM,[1],96%
same,Viability Percent DMSO,[5],130 Percent DMSO
Cc1cc(/C=C/C#N)cc(C)c1Nc1ccnc(Nc2ccc(C#N)cc2)n1 [Rilpivirine],activity at 10 µM,[1],71%
same,Viability Percent DMSO,[5],132 Percent DMSO
O=c1[nH]c(=O)n([C@H]2C[C@H](O)[C@@H](CO)O2)cc1I [Dendrid],activity at 10 µM,[1],102%
same,Viability Percent DMSO,[5],103 Percent DMSO
COc1c(-c2ccc3cc(NS(C)(=O)=O)ccc3c2)cc(-n2ccc(=O)[nH]c2=O)cc1C(C)(C)C [Dasabuvir],activity at 10 µM,[1],14%
same,Viability Percent DMSO,[5],116 Percent DMSO
C=C(C)[C@@H]1CC[C@]2(C(=O)O)CC[C@]3(C)[C@H](CC[C@@H]4[C@@]5(C)CC[C@H](O)C(C)(C)[C@@H]5CC[C@]43C)[C@@H]12 [Betulinic acid],activity at 10 µM,[1],75%
same,Viability Percent DMSO,[5],116 Percent DMSO
O=C(Nc1ccccc1)c1ccccc1O [Salicylanilide],activity at 10 µM,[1],76%
same,Viability Percent DMSO,[5],120 Percent DMSO
CC(N)C12CC3CC(CC(C3)C1)C2 (stereo not drawn) [Rimantadine hydrochloride],activity at 10 µM,[1],113%
same,Viability Percent DMSO,[5],98 Percent DMSO
COC(=O)c1cc(OC)c2c(c1-c1c(CO)cc(OC)c3c1OCO3)OCO2 [Bicyclol],activity at 10 µM,[1],105%
same,Viability Percent DMSO,[5],115 Percent DMSO
N#Cc1ccc(COC[C@H]2O[C@@H](n3c(NCc4ccc(Cl)c(Cl)c4)nc4c(N)ncnc43)[C@H](O)[C@@H]2O)cc1 [VER155008],Anti-HAV activity relative to CC50 (in words),[6],only at concentrations close to their CC50
same,IC50,[6],3320 nM
same,CC50,[7],> 10000 nM
O=C(/C=C/c1ccc(O)cc1)c1ccc(O)cc1O [Isoliquiritigenin],activity at 10 µM,[1],104%
same,Viability Percent DMSO,[5],100 Percent DMSO
JG98,Anti-HAV activity relative to CC50 (in words),[6],only at concentrations close to their CC50
same,IC50,[6],534 nM
same,CC50,[7],> 1000 nM
Nc1nc(=O)n([C@@H]2CS[C@H](CO)O2)cc1F [Emtricitabine],activity at 10 µM,[1],120%
same,Viability Percent DMSO,[2],123 Percent DMSO
C[C@@]1(F)[C@H](O)[C@@H](CO)O[C@H]1n1ccc(=O)[nH]c1=O [PSI6206],Normalized HAV production,[1],1.52
same,Viability Percent DMSO,[5],104 Percent DMSO
Cc1ccc(NC(=O)C(=O)NC2CC(C)(C)NC(C)(C)C2)cc1 [YYA-021],Normalized HAV production,[1],1.03
same,Viability Percent DMSO,[2],121 Percent DMSO
COC(=O)N[C@H](C(=O)NNC[C@H](O)[C@H](Cc1ccccc1)NC(=O)[C@@H](NC(=O)OC)C(C)(C)C)C(C)(C)C [Des(benzylpyridyl) Atazanavi],Normalized HAV production,[1],0.67
same,Viability Percent DMSO,[2],159 Percent DMSO
Nc1nc2c(ncn2[C@@H]2O[C@H](CO)[C@@H](O)[C@H]2O)c(=O)[nH]1 [Guanosine],activity at 10 µM,[1],88%
same,Viability Percent DMSO,[5],126 Percent DMSO
OC[C@H]1O[C@@H](O[C@@H]2OC=C[C@H]3[C@H](O)[C@@H]4O[C@]4(CO)[C@@H]23)[C@H](O)[C@@H](O)[C@@H]1O [Catalpol],activity at 10 µM,[1],98%
same,Viability Percent DMSO,[5],128 Percent DMSO
Cc1nnc(C(=O)NC(C)(C)c2nc(C(=O)NCc3ccc(F)cc3)c(O)c(=O)n2C)o1 [Raltegravir],activity at 10 µM,[1],124%
same,Viability Percent DMSO,[5],132 Percent DMSO
C[C@H]1CO[C@@H]2Cn3cc(C(=O)NCc4ccc(F)cc4F)c(=O)c(O)c3C(=O)N12 [Cabotegravir],activity at 10 µM,[1],49%
same,Viability Percent DMSO,[5],170 Percent DMSO
O=S(=O)(CCC(F)=C(F)F)c1ncc(Cl)s1 [Fluensulfone],Normalized HAV production,[1],0.97
same,Viability Percent DMSO,[5],128 Percent DMSO
CCC[C@H](NC(=O)[C@@H]1[C@H]2CCC[C@H]2CN1C(=O)[C@@H](NC(=O)[C@@H](NC(=O)c1cnccn1)C1CCCCC1)C(C)(C)C)C(=O)C(=O)NC1CC1 [Telaprevir],activity at 10 µM,[1],73%
same,Viability Percent DMSO,[5],119 Percent DMSO
CC(C)(C)C(=O)OCOP(=O)(COCCn1cnc2c(N)ncnc21)OCOC(=O)C(C)(C)C [Adefovir dipivoxil],activity at 10 µM,[1],138%
same,Viability Percent DMSO,[5],74 Percent DMSO
CC(C)(C)C#Cc1cc(N(C(=O)[C@H]2CC[C@H](C)CC2)[C@H]2CC[C@H](O)CC2)c(C(=O)O)s1 [Lomibuvir],activity at 10 µM,[1],97%
same,Viability Percent DMSO,[5],125 Percent DMSO
CC(C)OC(=O)[C@H](C)N[P@](=O)(CO[C@H](C)Cn1cnc2c(N)ncnc21)Oc1ccccc1 [Tenofovir alafenamide],activity at 10 µM,[1],141%
same,Viability Percent DMSO,[2],75 Percent DMSO
COc1cc2c(cc1Cc1cccc(Cl)c1F)c(=O)c(C(=O)O)cn2[C@H](CO)C(C)C [Elvitegravir],activity at 10 µM,[1],95%
same,Viability Percent DMSO,[5],118 Percent DMSO
CC[C@@H](CO)NCCN[C@@H](CC)CO [Ethambutol dihydrochloride],activity at 10 µM,[1],83%
same,Viability Percent DMSO,[5],112 Percent DMSO
O=C(Nc1ccc(O)cc1)c1ccccc1O [Osalmid],activity at 10 µM,[1],132%
same,Viability Percent DMSO,[5],93 Percent DMSO
CN(C)c1ccc(C(=C2C=CC(=[N+](C)C)C=C2)c2ccc(N(C)C)cc2)cc1 [Crystal Violet],activity at 10 µM,[1],0.413%
same,Viability Percent DMSO,[5],20 Percent DMSO
CCOC(=O)c1ccc(OCCC2CCN(c3ccc(C)nn3)CC2)cc1 [Pirodavir],activity at 10 µM,[1],91%
same,Viability Percent DMSO,[5],134 Percent DMSO
CC[n+]1c(-c2ccccc2)c2cc(N)ccc2c2ccc(N)cc21 [Ethidium bromide],activity at 10 µM,[1],4.56%
same,Viability Percent DMSO,[5],85 Percent DMSO
COc1ccc(C2CNC(=O)C2)cc1OC1CCCC1 (stereo not drawn) [Rolipram],activity at 10 µM,[1],130%
same,Viability Percent DMSO,[5],113 Percent DMSO
O=C1CCC[C@@H]2[C@H]3CCC[N+]4([O-])CCC[C@@H](CN12)[C@@H]34 (stereo partly drawn) [Oxymatrine],activity at 10 µM,[1],100%
same,Viability Percent DMSO,[5],92 Percent DMSO
O=C(O[C@@H]1Cc2c(O)cc(O)cc2O[C@@H]1c1cc(O)c(O)c(O)c1)c1cc(O)c(O)c(O)c1 [(-)-Epigallocatechin Gallate],activity at 10 µM,[1],105%
same,Viability Percent DMSO,[5],125 Percent DMSO
Cc1cnc(C(=O)N[C@H]2CCCCC/C=C\[C@@H]3C[C@@]3(C(=O)NS(=O)(=O)C3CC3)NC(=O)[C@@H]3C[C@@H](Oc4nc5ccccc5c5ccccc45)CN3C2=O)cn1 [Paritaprevir],activity at 10 µM,[1],64%
same,Viability Percent DMSO,[5],91 Percent DMSO
Cc1cn([C@H]2C=C[C@@H](CO)O2)c(=O)[nH]c1=O [Stavudine],activity at 10 µM,[1],101%
same,Viability Percent DMSO,[5],101 Percent DMSO
Cl.N=C(N=C(N)N)N1CCOCC1 [Moroxydine hydrochloride],Normalized HAV production,[1],1.21
same,Viability Percent DMSO,[5],125 Percent DMSO
C[C@@H]1O[C@@H](O[C@H]2[C@H](Oc3cc(O)c4c(c3)O[C@H](c3ccc(O)cc3)CC4=O)O[C@H](CO)[C@@H](O)[C@@H]2O)[C@H](O)[C@H](O)[C@H]1O [Naringin],activity at 10 µM,[1],124%
same,Viability Percent DMSO,[5],115 Percent DMSO
CC1(C)CC[C@]2(C(=O)O)CC[C@]3(C)C(=CC[C@@H]4[C@@]5(C)CCC(=O)C(C)(C)[C@@H]5CC[C@]43C)[C@@H]2C1 [Oleanonic Acid],activity at 10 µM,[1],935%
same,Viability Percent DMSO,[5],1.23 Percent DMSO
